Laboratory results published in ChEMBL document CHEMBL1201862, “PubChem BioAssay data set” (2004).
The source made the active and inactive calls.

How the values were obtained:
Trypsin = Trypsin (Sus scrofa, UniProt P00761); test: trypsin protease activity blockade – biochemical, quenched peptide fluorescence, cherry-pick, selectivity assay for Rce1 protease inhibitor project, dose response (AID 488789)
CAAX prenyl protease 2 [1] = biological target: CAAX prenyl protease 2 (Saccharomyces cerevisiae S288c, UniProt Q03530); assay type: biochemical
CAAX prenyl protease 1 = CAAX prenyl protease 1 (Saccharomyces cerevisiae S288c, UniProt P47154); test: yeast CAAX protease Ste24 inhibition – biochemical, S. cerevisiae, plate reader, cherry-pick, dose response (AID 488815)
CAAX prenyl protease 2 [2] = biological target: CAAX prenyl protease 2 (Homo sapiens, UniProt Q9Y256); test: inhibition of Ras-converting CAAX protease Rce1 – biochemical, yeast membranes, quenched-peptide fluorescence, cherry-pick, dose response (AID 588849)
HEK293 [3] = test: inhibition of NOD1-driven NF-kB reporter – cell-based, luminescence, uHTS, primary screen (AID 1578); assay type: functional; conditions: Homo sapiens
HEK293 [4] = test: cells; assay type: functional, cell-based; conditions: Homo sapiens
HEK293 [5] = test: cells; assay type: functional, cell-based; conditions: Homo sapiens; remark: listed apart in the source
[6] = biological target: Nucleotide-binding oligomerization domain-containing protein 2 (Homo sapiens, UniProt Q9HC29); test: inhibition of NOD2-driven NF-kB reporter – cell-based, luminescence, uHTS, HEK293 (AID 1566); assay type: functional
HEK293 [7] = test: NOD2 signaling inhibitors in MDP-stimulated cells, cell-based, uHTS, luminescence (AID 2001); assay type: functional; conditions: Homo sapiens
HEK293 [8] = test: cells; assay type: functional, cell-based; conditions: Homo sapiens; remark: listed apart in the source

Chain of Trypsin (P00761 whole entry): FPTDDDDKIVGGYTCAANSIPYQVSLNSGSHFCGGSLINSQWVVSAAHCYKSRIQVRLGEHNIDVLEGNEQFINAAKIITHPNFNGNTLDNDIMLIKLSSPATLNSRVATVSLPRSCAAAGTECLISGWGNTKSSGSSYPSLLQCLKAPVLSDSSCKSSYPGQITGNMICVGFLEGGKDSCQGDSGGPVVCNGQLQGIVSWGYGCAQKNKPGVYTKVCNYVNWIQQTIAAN
Chain of CAAX prenyl protease 2 (Saccharomyces cerevisiae S288c, UniProt Q03530) (Q03530 whole entry): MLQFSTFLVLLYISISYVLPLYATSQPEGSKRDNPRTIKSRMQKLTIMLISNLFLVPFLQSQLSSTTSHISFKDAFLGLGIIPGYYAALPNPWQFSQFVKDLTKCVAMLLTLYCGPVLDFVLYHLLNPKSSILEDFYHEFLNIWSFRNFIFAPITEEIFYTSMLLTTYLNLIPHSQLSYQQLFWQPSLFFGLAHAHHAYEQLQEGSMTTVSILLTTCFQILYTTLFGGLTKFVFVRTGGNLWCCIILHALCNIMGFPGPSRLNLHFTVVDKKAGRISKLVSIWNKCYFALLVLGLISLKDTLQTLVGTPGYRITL
Chain of CAAX prenyl protease 1 (P47154 whole entry): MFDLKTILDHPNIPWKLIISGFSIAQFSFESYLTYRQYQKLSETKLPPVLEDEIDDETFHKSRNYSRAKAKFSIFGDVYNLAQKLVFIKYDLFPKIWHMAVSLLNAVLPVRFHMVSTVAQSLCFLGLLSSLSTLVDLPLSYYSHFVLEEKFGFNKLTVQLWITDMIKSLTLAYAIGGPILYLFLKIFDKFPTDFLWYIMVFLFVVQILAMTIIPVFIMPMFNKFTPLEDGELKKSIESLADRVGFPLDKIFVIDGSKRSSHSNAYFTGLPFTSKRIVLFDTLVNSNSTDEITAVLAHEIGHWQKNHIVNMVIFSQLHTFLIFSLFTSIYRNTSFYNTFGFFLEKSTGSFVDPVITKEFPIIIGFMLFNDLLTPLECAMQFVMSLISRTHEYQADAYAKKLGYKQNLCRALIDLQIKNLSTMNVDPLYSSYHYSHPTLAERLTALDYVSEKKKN
Chain of CAAX prenyl protease 2 (Homo sapiens, UniProt Q9Y256) (Q9Y256 whole entry): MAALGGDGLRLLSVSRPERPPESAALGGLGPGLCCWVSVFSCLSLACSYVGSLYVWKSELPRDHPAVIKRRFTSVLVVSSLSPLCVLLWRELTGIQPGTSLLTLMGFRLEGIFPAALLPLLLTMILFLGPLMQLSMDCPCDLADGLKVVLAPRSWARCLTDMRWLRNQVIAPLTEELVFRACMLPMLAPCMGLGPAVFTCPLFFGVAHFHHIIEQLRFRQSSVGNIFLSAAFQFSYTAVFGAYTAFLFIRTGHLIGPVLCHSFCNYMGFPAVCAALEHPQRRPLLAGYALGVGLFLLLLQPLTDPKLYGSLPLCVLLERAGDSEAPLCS
Chain of Nucleotide-binding oligomerization domain-containing protein 2 (Q9HC29 whole entry, the tested form may be a part): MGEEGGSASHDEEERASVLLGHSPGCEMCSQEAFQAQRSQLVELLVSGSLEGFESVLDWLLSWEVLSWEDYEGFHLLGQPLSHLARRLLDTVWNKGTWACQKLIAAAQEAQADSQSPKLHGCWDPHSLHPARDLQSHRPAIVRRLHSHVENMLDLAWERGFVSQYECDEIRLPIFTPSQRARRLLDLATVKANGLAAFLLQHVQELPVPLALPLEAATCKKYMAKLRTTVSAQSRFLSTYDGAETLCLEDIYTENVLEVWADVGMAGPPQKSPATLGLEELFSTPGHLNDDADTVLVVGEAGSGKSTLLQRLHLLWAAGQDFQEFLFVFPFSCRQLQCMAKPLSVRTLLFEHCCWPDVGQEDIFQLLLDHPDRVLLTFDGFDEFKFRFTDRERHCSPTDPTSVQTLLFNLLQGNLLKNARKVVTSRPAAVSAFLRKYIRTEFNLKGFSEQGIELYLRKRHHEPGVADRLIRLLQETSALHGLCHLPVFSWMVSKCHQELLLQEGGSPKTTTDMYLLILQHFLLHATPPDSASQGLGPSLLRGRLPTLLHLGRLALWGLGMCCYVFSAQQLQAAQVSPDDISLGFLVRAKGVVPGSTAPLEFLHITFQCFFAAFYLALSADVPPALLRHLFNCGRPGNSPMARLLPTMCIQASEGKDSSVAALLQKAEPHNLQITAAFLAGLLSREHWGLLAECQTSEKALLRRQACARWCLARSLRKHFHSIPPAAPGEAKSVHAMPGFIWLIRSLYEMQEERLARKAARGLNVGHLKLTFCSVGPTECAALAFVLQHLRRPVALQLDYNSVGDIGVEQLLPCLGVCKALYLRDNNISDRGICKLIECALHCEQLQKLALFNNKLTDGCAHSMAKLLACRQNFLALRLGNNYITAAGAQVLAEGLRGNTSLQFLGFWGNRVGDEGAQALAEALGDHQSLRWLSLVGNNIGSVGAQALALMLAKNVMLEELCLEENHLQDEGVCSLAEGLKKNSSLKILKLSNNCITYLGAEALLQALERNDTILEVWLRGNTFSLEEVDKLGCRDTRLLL

AC50 (Trypsin)	AC50 (CAAX prenyl protease 2 [1])	AC50 (CAAX prenyl protease 1)	AC50 (CAAX prenyl protease 2 [2])	SMILES	EC50 (HEK293 [3])	IC50 (HEK293 [4])	IC50 (HEK293 [5])	EC50 [6]	IC50 (HEK293 [7])	IC50 (HEK293 [8])
15.3 µM (active)	28.7 µM (active)	3.46 µM (active)	8.22 µM (active)	Nc1nc(N2CCN(C(=O)c3ccco3)CC2)nc2ccccc12	–	–	–	–	–	–
–	–	–	–	CC(=O)c1ccc(Nc2nc3ccccc3nc2NS(=O)(=O)c2cccs2)cc1	8.18 µM (active)	15.6 µM (active)	> 20 µM (inactive)	6.47 µM (active)	9.59 µM (active)	> 20 µM (inactive)
